Here are results for 27 compounds from patent publication US11753397B2, “Cereblon binders for the degradation of ikaros” (C4 Therapeutics, Inc., priority 2018, dated 2023).

Structures are written as SMILES.

A word on the GI50: it is the concentration at which growth is held to half of that of the control. A high value points to lower sensitivity of the cells.

For this assay, the system named is NCIH929.1 cells. Briefly: Cell viability assay (CellTiter-Glo 2.0, ATP quantification). In kind it is cell-based. The following applies: NCIH929.1 cell viability, CellTiter-Glo 2.0, 96 hr incubation, top concentration 1 μM. The essentials:
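Cells seeded at 750/well in RPMI with 10% FBS and 0.05 mM 2-mercaptoethanol, exposed 96 h at 37 °C to 10-point half-log dilutions in duplicate, top 1 μM. Viability by CellTiter-Glo 2.0 ATP luminescence, with a day-0 read as cytostatic baseline (CT0).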

Regarding `O=C1CCC(N2C(=O)c3cccc(NCc4cnn(C5CCN(C(=O)OCc6ccccc6)CC5)c4)c3C2=O)C(=O)N1` (stereo not drawn) [Compound 146, benzyl 4-(4-(((2-(2,6-dioxopiperidin-3-yl)-1,3-dioxoisoindolin-4-yl)amino)methyl)-1H-pyrazol-1-yl)piperidine-1-carboxylate], the GI50 is below 100 nM.

`Cc1cccc2c(CC(=O)N3CCC(n4cc(CNc5cccc6c5C(=O)N(C5CCC(=O)NC5=O)C6=O)cn4)CC3)noc12` (stereo not drawn) [Compound 104, 2-(2,6-dioxopiperidin-3-yl)-4-(((1-(1-(2-(7-methylbenzo[d]isoxazol-3-yl)acetyl)piperidin-4-yl)-1H-pyrazol-4-yl)methyl)amino)isoindoline-1,3-dione] gave a GI50 below 1 nM.

With `CC(C)(C)OC(=O)N1CCC(n2cc(CNc3cccc4c3C(=O)N(C3CCC(=O)NC3=O)C4=O)cn2)CC1(C)C` (stereo not drawn) [Compound 169, tert-Butyl 4-(4-(((2-(2,6-dioxopiperidin-3-yl)-1,3-dioxoisoindolin-4-yl)amino)methyl)-1H-pyrazol-1-yl)-2,2-dimethylpiperidine-1-carboxylate], the GI50 is below 1 nM.

`O=C1CCC(N2C(=O)c3cccc(NCc4cnn(C5CCN(C(=O)C67CC8CC(CC(C8)C6)C7)CC5)c4)c3C2=O)C(=O)N1` (stereo not drawn) [Compound 44, 4-(((1-(1-(adamantane-1-carbonyl)piperidin-4-yl)-1H-pyrazol-4-yl)methyl)amino)-2-(2,6-dioxopiperidin-3-yl)isoindoline-1,3-dione] yielded a GI50 below 1 nM.

In turn, `C#Cc1c(CNc2cccc3c2C(=O)N(C2CCC(=O)NC2=O)C3=O)cnn1C1CCN(C(=O)C2(C)CCC2)CC1` (stereo not drawn) [Compound 192, 2-(2,6-Dioxopiperidin-3-yl)-4-(((5-ethynyl-1-(1-(1-methylcyclobutane-1-carbonyl)piperidin-4-yl)-1H-pyrazol-4-yl)methyl)amino)isoindoline-1,3-dione] showed a GI50 below 100 nM.

For `CC(=O)N1CCC(n2cc(CNc3cccc4c3C(=O)N(C3CCC(=O)NC3=O)C4=O)cn2)CC1` (stereo not drawn) [Compound 159, 4-[[1-(1-acetyl-4-piperidyl)pyrazol-4-yl]methylamino]-2-(2,6-dioxo-3-piperidyl)isoindoline-1,3-dione], the GI50 is below 100 nM.

Consider `CC(C)(O)CC(=O)N1CCC(n2cc(CNc3cccc4c3C(=O)N(C3CCC(=O)NC3=O)C4=O)cn2)CC1` (stereo not drawn) [Compound 46, 2-(2,6-dioxopiperidin-3-yl)-4-(((1-(1-(3-hydroxy-3-methylbutanoyl)piperidin-4-yl)-1H-pyrazol-4-yl)methyl)amino)isoindoline-1,3-dione], for which the concentration for 50% growth inhibition (GI50) is below 100 nM.

`O=C1CCC(N2C(=O)c3cccc(NCc4cnn(C5CCCC5)c4)c3C2=O)C(=O)N1` (stereo not drawn) [Compound 151, 4-[(1-cyclopentylpyrazol-4-yl)methylamino]-2-(2,6-dioxo-3-piperidyl)isoindoline-1,3-dione]: the GI50 was below 100 nM.

In turn, `CC1(C(=O)N2CCC(n3ncc(CNc4cccc5c4C(=O)N(C4CCC(=O)NC4=O)C5=O)c3Br)CC2)CCC1` (stereo not drawn) [Compound 188, 4-(((5-Bromo-1-(1-(1-methylcyclobutane-1-carbonyl)piperidin-4-yl)-1H-pyrazol-4-yl)methyl)amino)-2-(2,6-dioxopiperidin-3-yl)isoindoline-1,3-dione] displayed a GI50 below 100 nM.

For `CC(C)(C)OC(=O)N1CCC(n2cc(CNc3cccc4c3C(=O)N(C3CCC(=O)NC3=O)C4=O)cn2)C(F)(F)C1` (stereo not drawn) [Compound 176, tert-Butyl 4-(4-(((2-(2,6-dioxopiperidin-3-yl)-1,3-dioxoisoindolin-4-yl)amino)methyl)-1H-pyrazol-1-yl)-3,3-difluoropiperidine-1-carboxylate], the concentration for 50% growth inhibition (GI50) is below 100 nM.

`CC(C)(O)C(=O)N1CCC(n2cc(CNc3cccc4c3C(=O)N(C3CCC(=O)NC3=O)C4=O)cn2)CC1` (stereo not drawn) [Compound 52, 2-(2,6-dioxopiperidin-3-yl)-4-(((1-(1-(2-hydroxy-2-methylpropanoyl)piperidin-4-yl)-1H-pyrazol-4-yl)methyl)amino)isoindoline-1,3-dione] showed a GI50 below 100 nM.

`CC1(CN2CCC(n3cc(CNc4cccc5c4C(=O)N(C4CCC(=O)NC4=O)C5=O)cn3)CC2)CC1` (stereo not drawn) [Compound 136, 2-(2,6-dioxopiperidin-3-yl)-4-(((1-(1-((1-methylcyclopropyl)methyl)piperidin-4-yl)-1H-pyrazol-4-yl)methyl)amino)isoindoline-1,3-dione]: the GI50 is below 1 nM.

Regarding `CN(C)CC(=O)N1CCC(n2cc(CNc3cccc4c3C(=O)N(C3CCC(=O)NC3=O)C4=O)cn2)CC1` (stereo not drawn) [Compound 37, 4-(((1-(1-(dimethylglycyl)piperidin-4-yl)-1H-pyrazol-4-yl)methyl)amino)-2-(2,6-dioxopiperidin-3-yl)isoindoline-1,3-dione], the 50% growth inhibitory concentration (GI50) is below 100 nM.

`O=C1CCC(N2C(=O)c3cccc(NCc4cnn(C5CCN(C(=O)c6cccc(Cn7cccn7)c6)CC5)c4)c3C2=O)C(=O)N1` (stereo not drawn) [Compound 119, 4-(((1-(1-(3-((1H-pyrazol-1-yl)methyl)benzoyl)piperidin-4-yl)-1H-pyrazol-4-yl)methyl)amino)-2-(2,6-dioxopiperidin-3-yl)isoindoline-1,3-dione] came in with a concentration for 50% growth inhibition (GI50) below 100 nM.

For the compound `O=C1CCC(N2C(=O)c3cccc(NCc4cnn(C5CCN(C(=O)CCC(F)(F)F)CC5)c4)c3C2=O)C(=O)N1` (stereo not drawn) [Compound 30, 2-(2,6-dioxopiperidin-3-yl)-4-(((1-(1-(4,4,4-trifluorobutanoyl)piperidin-4-yl)-1H-pyrazol-4-yl)methyl)amino)isoindoline-1,3-dione], the GI50 was below 100 nM.

`N#CC1(C(=O)N2CCC(n3cc(CNc4cccc5c4C(=O)N(C4CCC(=O)NC4=O)C5=O)cn3)CC2)CCC1` (stereo not drawn) [Compound 81, 1-(4-(4-(((2-(2,6-dioxopiperidin-3-yl)-1,3-dioxoisoindolin-4-yl)amino)methyl)-1H-pyrazol-1-yl)piperidine-1-carbonyl)cyclobutane-1-carbonitrile] had a GI50 below 100 nM.

Compound `CC(C)CC(=O)N1CCC(n2cc(CNc3cccc4c3C(=O)N(C3CCC(=O)NC3=O)C4=O)cn2)CC1` (stereo not drawn) [Compound 49, 2-(2,6-dioxopiperidin-3-yl)-4-(((1-(1-(3-methylbutanoyl)piperidin-4-yl)-1H-pyrazol-4-yl)methyl)amino)isoindoline-1,3-dione] came in with a GI50 below 100 nM.

`CC1(C(=O)N2CCC(n3cc(CNc4cccc5c4C(=O)N(C4CCC(=O)NC4=O)C5=O)cn3)CC2)CC(F)(F)C1` (stereo not drawn) [Compound 74, 4-(((1-(1-(3,3-difluoro-1-methylcyclobutane-1-carbonyl)piperidin-4-yl)-1H-pyrazol-4-yl)methyl)amino)-2-(2,6-dioxopiperidin-3-yl)isoindoline-1,3-dione]: the GI50 was below 100 nM.

`CCC(C)C(=O)N1CCC(n2cc(CNc3cccc4c3C(=O)N(C3CCC(=O)NC3=O)C4=O)cn2)CC1` (stereo not drawn) [Compound 13, 2-(2,6-dioxopiperidin-3-yl)-4-(((1-(1-(2-methylbutanoyl)piperidin-4-yl)-1H-pyrazol-4-yl)methyl)amio)isoindoline-1,3-dione] showed a 50% growth inhibitory concentration (GI50) below 100 nM.

Compound `O=C1CCC(N2C(=O)c3cccc(NCc4cnn(C5CCN(C(=O)Cc6ccc(-c7ccc(F)cc7)cc6)CC5)c4)c3C2=O)C(=O)N1` (stereo not drawn) [Compound 106, 2-(2,6-dioxopiperidin-3-yl)-4-(((1-(1-(2-(4′-fluoro-[1,1′-biphenyl]-4-yl)acetyl)piperidin-4-yl)-1H-pyrazol-4-yl)methyl)amino)isoindoline-1,3-dione] yielded a GI50 below 100 nM.

For the compound `O=C1CCC(N2C(=O)c3cccc(NCc4cnn(C5CCN(C(=O)CC6CCOCC6)CC5)c4)c3C2=O)C(=O)N1` (stereo not drawn) [Compound 28, 2-(2,6-dioxopiperidin-3-yl)-4-(((1-(1-(2-(tetrahydro-2H-pyrazin-4-yl)acetyl)piperidin-4-yl)-1H-pyrazol-4-yl)methyl)amino)isoindoline-1,3-dione], the GI50 was below 100 nM.

As for `CC(C)(C)C(=O)N1CCC(n2cc(CNc3cccc4c3C(=O)N(C3CCC(=O)NC3=O)C4=O)cn2)CC1` (stereo not drawn) [Compound 90, 2-(2,6-dioxopiperidin-3-yl)-4-(((1-(1-pivaloylpiperidin-4-yl)-1H-pyrazol-4-yl)methyl)amino)isoindoline-1,3-dione], the GI50 was below 1 nM.

As for `O=C1CCC(N2C(=O)c3cccc(NCc4cnn(C5CCN(C(=O)CC67CC8CC(CC(C8)C6)C7)CC5)c4)c3C2=O)C(=O)N1` (stereo not drawn) [Compound 47, 4-(((1-(1-(2-(adamantan-1-yl)acetyl)piperidin-4-yl)-1H-pyrazol-4-yl)methyl)amino)-2-(2,6-dioxopiperidin-3-yl)isoindoline-1,3-dione], the concentration for 50% growth inhibition (GI50) was below 1 nM.

In the case of `O=C1CCC(N2C(=O)c3cccc(NCc4cnn(C5CCN(C(=O)c6cccc(C#Cc7ccccc7)c6)CC5)c4)c3C2=O)C(=O)N1` (stereo not drawn) [Compound 108, 2-(2,6-dioxopiperidin-3-yl)-4-(((1-(1-(3-(phenylethynyl)benzoyl)piperidin-4-yl)-1H-pyrazol-4-yl)methyl)amino)isoindoline-1,3-dione], the GI50 was below 100 nM.

With `CC1(CN2CCC(n3cc(CNc4cccc5c4C(=O)N(C4CCC(=O)NC4=O)C5=O)cn3)CC2)CCC1` (stereo not drawn) [Compound 139, 2-(2,6-Dioxo-piperidin-3-yl)-4-({1-[1-(1-methyl-cyclobutylmethyl)-piperidin-4-yl]-1H-pyrazol-4-ylmethyl}-amino)-isoindole-1,3-dione], the GI50 was below 100 nM.

In turn, `O=C1CCC(N2C(=O)c3cccc(NCc4cnn(C5CCN(C(=O)Cn6cccn6)CC5)c4)c3C2=O)C(=O)N1` (stereo not drawn) [Compound 18, 4-(((1-(1-(2-(1H-pyrazol-1-yl)acetyl)piperidin-4-yl)-1H-pyrazol-4-yl)methyl)amino)-2-(2,6-dioxopiperidin-3-yl)isoindoline-1,3-dione] registered a GI50 below 100 nM.

In the case of `Cc1ccc(OC(C)(C)C(=O)N2CCC(n3cc(CNc4cccc5c4C(=O)N(C4CCC(=O)NC4=O)C5=O)cn3)CC2)cc1C` (stereo not drawn) [Compound 110, 4-(((1-(1-(2-(3,4-dimethylphenoxy)-2-methylpropanoyl)piperidin-4-yl)-1H-pyrazol-4-yl)methyl)amino)-2-(2,6-dioxopiperidin-3-yl)isoindoline-1,3-dione], the GI50 is below 100 nM.
